Tested on: HO-1
Assay: HO-1/GAPDH mRNA in cortex after IV FeS + SnPP (biomarker for oxidative stress)
Format: in vivo
Conditions: combined with iron sucrose
Experimental: The SnPP composition of Example 1 and the Comparative Example (1 micromole) were combined with iron sucrose (1 mg) to assess biomarkers for oxidative stress.

## C=CC1=C(C)C2=Cc3c(C=C)c(C)c4[n]3[Sn]([Cl])([Cl])[n]3c(c(C)c(CCC(=O)O)c3=CC3=NC(=C4)C(C)=C3CCC(=O)O)=CC1=N2 [Example 1, Stannic protoporfin]
  HO-1 induction relative to the comparative example, in words: lower HO-1 induction

— patent publication US20250242033A1, “Novel Stannic Protoporfin Compositions, Methods of Making, and Uses Thereof” (Renibus Therapeutics, Inc., priority 2023, published 2025)
